The record followed here is patent US20110200557A1, “NEW 2-AMIDOTHIADIAZOLE DERIVATIVES” (priority 2008, published 2011).

Structures are written as SMILES. pEC50: −log10 of the molar value.

The target of this test is S1P1 receptors (Homo sapiens, UniProt P21453). The experiment in a line: 35S-GTPyS binding assay. It is filed as biochemical. Conditions: membranes; compound 0.1 nM-10 μM; 0.1 nM 35S-GTPyS; 10 μM S1P as 100% maximum efficacy; 90 min at room temperature. The method, then:
The effect of the compounds was measured using a 35S-GTPyS binding assay. Briefly, membranes were incubated in a buffer containing 20 mM HEPES pH 7.4, 100 mM NaCl, 10 mM MgCl2, 10 μM GDP, 50 μg/ml saponin and 0.2% fatty acid-free BSA at various concentrations (0.1 nM-10 μM) and 0.1 nM 35S-GTPyS. 10 μM S1P was used as 100% maximum efficacy. The assay was incubated for 90 min at room temperature with gentle mixing, and terminated by filtrating the reaction mixture through GF/C filter plates using the Manifold Filtration System. The filters were immediately washed with sodium phosphate pH 7.4 buffers. After drying the filter plate's scintillant liquid were added to each well and 35S-GTPyS binding was measured on a Trilux Scintillation Counter.

Chain of S1P1 receptors (P21453 whole entry): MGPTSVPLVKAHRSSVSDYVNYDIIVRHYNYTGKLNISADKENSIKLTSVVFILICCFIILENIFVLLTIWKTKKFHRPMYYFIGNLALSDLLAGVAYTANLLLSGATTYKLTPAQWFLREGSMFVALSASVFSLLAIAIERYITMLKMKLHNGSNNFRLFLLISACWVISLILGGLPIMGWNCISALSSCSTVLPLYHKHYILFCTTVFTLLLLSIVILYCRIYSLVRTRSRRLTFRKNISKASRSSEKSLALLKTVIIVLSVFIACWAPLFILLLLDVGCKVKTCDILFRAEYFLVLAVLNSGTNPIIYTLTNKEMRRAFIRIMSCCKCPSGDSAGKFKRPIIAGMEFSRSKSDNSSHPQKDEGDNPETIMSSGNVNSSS

As a reminder, the pEC50 is the negative decadic logarithm of the EC50, by convention in mol/L. Read a high pEC50 as a small EC50. The compound `CCN(C(=O)c1cccc(Cl)c1F)c1nnc(-c2ccc(CN3CC(C(=O)O)C3)cc2)s1` [Example 108, 1-(4-{5-[(3-Chloro-2-fluorobenzoyl)(ethyl)amino]-1,3,4-thiadiazol-2-yl}benzyl)-azetidine-3-carboxylic acid] had a pEC50 of 8.15. The result for `CCCCN(C(=O)c1ccccc1Cl)c1nnc(-c2cc(Cl)nc(OC)c2)s1` [Example 31, N-Butyl-2-chloro-N-[5-(2-chloro-6-methoxypyridin-4-yl)-1,3,4-thiadiazol-2-yl]benzamide] reads 8.47; that for `CCCCN(C(=O)c1cccc(Cl)c1F)c1nnc(-c2cc(C)c(OCC(O)CO)c(C)c2)s1` (stereo not drawn) [Example 111, N-Butyl-3-chloro-N-{5-[4-(2,3-dihydroxypropoxy)-3,5-dimethylphenyl]-1,3,4-thiadiazol-2-yl}-2-fluorobenzamide], 9.82; that for `CCCCN(C(=O)c1ccccc1F)c1nnc(-c2ccc(OC)nc2)s1` [Example 48, N-butyl-2-fluoro-N-(5-(6-methoxypyridin-3-yl)-1,3,4-thiadiazol-2-yl)benzamide], 6.94. The result for `CCCCN(C(=O)c1ccccc1Cl)c1nnc(-c2ccc(C(N)=O)cc2)s1` [Example 53, N-butyl-N-(5-(4-carbamoylphenyl)-1,3,4-thiadiazol-2-yl)-2-chlorobenzamide] reads 7.33; that for `CCCCN(C(=O)Cc1ccccc1F)c1nnc(-c2ccc(CN3CC(C(=O)O)C3)cc2)s1` [Example 87, 1-[4-(5-{Butyl[(2-fluorophenyl)acetyl]amino}-1,3,4-thiadiazol-2-yl)benzyl]azetidine-3-carboxylic acid], 8.85. `CCCCN(C(=O)c1ccccc1F)c1nnc(-c2ccc(CN3CCC(C(=O)O)C3)cc2C)s1` (stereo not drawn) [Example 97, 1-(4-{5-[Butyl(2-fluorobenzoyl)amino]-1,3,4-thiadiazol-2-yl}-3-methylbenzyl)-pyrrolidine-3-carboxylic acid] had a pEC50 of 8.70. Compound `CCCCN(C(=O)c1ccccc1Cl)c1nnc(-c2cc(C)c(O)c(C)c2)s1` [Example 8, N-butyl-2-chloro-N-[5-(4-hydroxy-3,5-dimethylphenyl)-1,3,4-thiadiazol-2-yl]benzamide] gave a pEC50 of 8.21. The result for `CCCCN(C(=O)c1ccccc1Cl)c1nnc(-c2cc(C)nc(Cl)c2)s1` [Example 39, N-Butyl-2-chloro-N-[5-(2-chloro-6-methylpyridin-4-yl)-1,3,4-thiadiazol-2-yl]benzamide] reads 8.42.

With `CCCCN(C(=O)c1ccccc1F)c1nnc(-c2cc(C)c(OCCN)c(C)c2)s1` [Example 105, N-{5-[4-(2-Aminoethoxy)-3,5-dimethylphenyl]-1,3,4-thiadiazol-2-yl}-N-butyl-2-fluorobenzamide], the negative logarithm of the EC50 (pEC50) was 9.35. The result for `CCCCN(C(=O)c1ccccc1OC)c1nnc(-c2cc(C)c(OC)c(C)c2)s1` [Example 19, N-butyl-2-methoxy-N-[5-(4-methoxy-3,5-dimethylphenyl)-1,3,4-thiadiazol-2-yl]benzamide] reads 8.08. As to `CCCCN(C(=O)c1ccccc1F)c1nnc(-c2cc(C)c(OC)c(C)c2)s1` [Example 9, N-butyl-2-fluoro-N-[5-(4-methoxy-3,5-dimethylphenyl)-1,3,4-thiadiazol-2-yl]benzamide], the pEC50 is 8.36. The compound `CCCCN(C(=O)c1ccccc1Cl)c1nnc(-c2ccc(CN3CCC(C(=O)O)CC3)cc2C)s1` [Example 118, 1-(4-{5-[Butyl(2-chlorobenzoyl)amino]-1,3,4-thiadiazol-2-yl}-3-methylbenzyl)-piperidine-4-carboxylic acid] gave a pEC50 of 8.35. The result for `CCCCN(C(=O)c1ccccc1F)c1nnc(-c2cc(C)c(OCC(O)CN)c(C)c2)s1` (stereo not drawn) [Example 113, N-{5-[4-(3-Amino-2-hydroxypropoxy)-3,5-dimethylphenyl]-1,3,4-thiadiazol-2-yl}-N-butyl-2-fluorobenzamide] reads 8.82; that for `CCCCN(C(=O)c1ccccc1F)c1nnc(-c2ccc(C(=O)NCCC(=O)O)cc2)s1` [Example 69, N-(4-{5-[Butyl(2-fluorobenzoyl)amino]-1,3,4-thiadiazol-2-yl}benzoyl)-beta-alanine], 7.26; that for `CCCCN(C(=O)c1ccccc1Cl)c1nnc(-c2cc(C)c(OCCOC)c(C)c2)s1` [Example 32, N-butyl-2-chloro-N-{5-[4-(2-methoxyethoxy)-3,5-dimethylphenyl]-1,3,4-thiadiazol-2-yl}benzamide], 7.19.

For `COc1c(C)cc(-c2nnc(N(CC3CC3)C(=O)c3ccccc3F)s2)cc1C` [Example 46, N-(cyclopropylmethyl)-2-fluoro-N-[5-(4-methoxy-3,5-dimethylphenyl)-1,3,4-thiadiazol-2-yl]benzamide], the pEC50 is 7.44. For `CCCCN(C(=O)c1ccccc1F)c1nnc(-c2ccc3nccn3c2)s1` [Example 49, N-butyl-2-fluoro-N-(5-(imidazo[1,2-a]pyridin-6-yl)-1,3,4-thiadiazol-2-yl)benzamide], the negative logarithm of the EC50 (pEC50) is 7.05.
